For data set [1] the following is noted: disulfide bond, water.
The target in the next data set is T1, P-selectin (Homo sapiens, UniProt P16109).
T1 construct: P-selectin is isolated from human platelet lysates; from tissue; host or cells: human platelets (outdated platelet packs from a blood bank)
T1 sequence (P16109 42-830): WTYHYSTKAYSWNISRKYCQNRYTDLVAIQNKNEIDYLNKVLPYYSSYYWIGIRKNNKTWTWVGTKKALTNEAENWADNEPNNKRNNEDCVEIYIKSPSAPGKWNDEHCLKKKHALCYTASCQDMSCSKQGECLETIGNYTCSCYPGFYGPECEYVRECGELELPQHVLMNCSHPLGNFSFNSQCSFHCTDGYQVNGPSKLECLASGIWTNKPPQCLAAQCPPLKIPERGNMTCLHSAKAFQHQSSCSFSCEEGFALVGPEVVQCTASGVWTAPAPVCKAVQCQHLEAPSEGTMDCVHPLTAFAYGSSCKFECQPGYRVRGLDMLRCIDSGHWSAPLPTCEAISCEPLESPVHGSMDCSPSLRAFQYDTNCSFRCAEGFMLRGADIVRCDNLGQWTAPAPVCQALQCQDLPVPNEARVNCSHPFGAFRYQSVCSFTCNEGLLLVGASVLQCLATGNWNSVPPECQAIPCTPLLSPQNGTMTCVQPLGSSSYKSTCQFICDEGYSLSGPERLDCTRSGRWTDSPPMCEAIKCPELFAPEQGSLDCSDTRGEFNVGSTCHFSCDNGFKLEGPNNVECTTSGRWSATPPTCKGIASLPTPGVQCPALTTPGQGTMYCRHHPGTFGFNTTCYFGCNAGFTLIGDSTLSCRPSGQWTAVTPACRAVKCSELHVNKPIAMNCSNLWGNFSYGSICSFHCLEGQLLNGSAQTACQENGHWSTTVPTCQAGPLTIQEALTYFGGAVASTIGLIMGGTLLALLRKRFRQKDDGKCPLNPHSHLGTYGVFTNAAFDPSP
As to the kind of experiment: Inhibition of human neutrophil adhesion to purified P-selectin immobilized on plastic wells. The class given is cell-based. Particulars: inhibiting the binding of human neutrophils to P-selectin. The procedure, abridged:
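Isolated human neutrophils (2×10^5 per well) in HBSS with Ca2+/Mg2+ and HSA added to wells coated overnight at 4° C with platelet-derived P-selectin (5 micrograms/mL), HSA-blocked; 20 min at 22° C. Nonadherent cells removed by inverted centrifugation at 150 g; adherent cells quantified by myeloperoxidase activity.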

pIC50: −log10 of the molar value. Read-outs that look alike come from different tables or passages of the source. Where a SMILES comes first, the peptide text is derived from it. Bridges are numbered along the chain shown (N, C = ends). [ ]: non-standard residue; d: D form.

`CC(C)[C@@H](NC(=O)[C@@H](Cc1c[nH]c2ccccc12)NC(=O)[C@H](NC(=O)[C@@H](Cc1c[nH]c2ccccc12)NC(=O)[C@H]1CSSC[C@@H](NC(=O)[C@@H](CCCCN)NC(=O)[C@H](N)CCCNC(=N)N)C(=O)N[C@H](CCCNC(=N)N)C(=O)N[C@@H](Cc2ccccc2)C(=O)N1)[C@H](C)O)C(N)=O` [(45)] (H-[dR][dK][dC][dR]F[dC][dW][dT][dW][dV]-NH2; disulfide 3-6) returned a ring closure, yield of all isomers in data set [1] (from CC(C)[C@@H](NC(=O)[C@@H](Cc1c[nH]c2ccccc12)NC(=O)[C@H](NC(=O)[C@@H](Cc1c[nH]c2ccccc12)NC(=O)[C@@H](CS)NC(=O)[C@H](Cc1ccccc1)NC(=O)[C@@H](CCCNC(=N)N)NC(=O)[C@@H](CS)NC(=O)[C@@H](CCCCN)NC(=O)[C@H](N)CCCNC(=N)N)[C@H](C)O)C(N)=O, DMSO, 0.357 mM, 25.0 °C, 48.0 h) of 15.5%. The pIC50 at P-selectin is 3.58.

For the compound `CC(C)[C@@H](NC(=O)[C@@H](Cc1c[nH]c2ccccc12)NC(=O)[C@H](NC(=O)[C@@H](Cc1c[nH]c2ccccc12)NC(=O)[C@H]1CSSC[C@@H](NC(=O)[C@@H](CCCCN)NC(=O)[C@H](N)CCCNC(=N)N)C(=O)N[C@@H](Cc2ccccc2)C(=O)NCC(=O)N1)[C@H](C)O)C(N)=O` [(18)] (H-[dR][dK][dC]FG[dC][dW][dT][dW][dV]-NH2; disulfide 3-6), the ring closure, yield of all isomers was 13.7% in data set [1] (from CC(C)[C@@H](NC(=O)[C@@H](Cc1c[nH]c2ccccc12)NC(=O)[C@H](NC(=O)[C@@H](Cc1c[nH]c2ccccc12)NC(=O)[C@@H](CS)NC(=O)CNC(=O)[C@H](Cc1ccccc1)NC(=O)[C@@H](CS)NC(=O)[C@@H](CCCCN)NC(=O)[C@H](N)CCCNC(=N)N)[C@H](C)O)C(N)=O, DMSO, 0.253 mM) and 13.7% in data set [1] (from CC(C)[C@@H](NC(=O)[C@@H](Cc1c[nH]c2ccccc12)NC(=O)[C@H](NC(=O)[C@@H](Cc1c[nH]c2ccccc12)NC(=O)[C@@H](CS)NC(=O)CNC(=O)[C@H](Cc1ccccc1)NC(=O)[C@@H](CS)NC(=O)[C@@H](CCCCN)NC(=O)[C@H](N)CCCNC(=N)N)[C@H](C)O)C(N)=O, DMSO, 0.253 mM, 16.0 h). On P-selectin, the negative-log IC50 (pIC50) is 4.31.

In data set [1] (from CC(C)[C@H](NC(=O)[C@H](Cc1c[nH]c2ccccc12)NC(=O)[C@@H](NC(=O)[C@H](Cc1c[nH]c2ccccc12)NC(=O)[C@H](CS)NC(=O)CNC(=O)CNC(=O)[C@@H](N)CS)[C@@H](C)O)C(N)=O, DMSO, 0.285 mM, 16.0 h), `CC(C)[C@H](NC(=O)[C@H](Cc1c[nH]c2ccccc12)NC(=O)[C@@H](NC(=O)[C@H](Cc1c[nH]c2ccccc12)NC(=O)[C@@H]1CSSC[C@H](N)C(=O)NCC(=O)NCC(=O)N1)[C@@H](C)O)C(N)=O` [(29)] (H-CGGCWTWV-NH2; disulfide 1-4) registered a ring closure, yield of all isomers of 8.5%. Moreover, the negative logarithm of the IC50 (pIC50) at P-selectin was 3.49.

Compound `CC(C)[C@H](NC(=O)[C@H](Cc1c[nH]c2ccccc12)NC(=O)[C@@H](NC(=O)[C@H](Cc1c[nH]c2ccccc12)NC(=O)[C@@H]1CSSC[C@H](NC(=O)[C@H](CCCCN)NC(=O)[C@@H](N)CCCNC(=N)N)C(=O)NCC(=O)NCC(=O)N1)[C@@H](C)O)C(N)=O` [(9)] (H-RKCGGCWTWV-NH2; disulfide 3-6) came in with a ring closure, yield of all isomers in data set [1] (from CC(C)[C@H](NC(=O)[C@H](Cc1c[nH]c2ccccc12)NC(=O)[C@@H](NC(=O)[C@H](Cc1c[nH]c2ccccc12)NC(=O)[C@H](CS)NC(=O)CNC(=O)CNC(=O)[C@H](CS)NC(=O)[C@H](CCCCN)NC(=O)[C@@H](N)CCCNC(=N)N)[C@@H](C)O)C(N)=O, DMSO, 0.456 mM, 16.0 h) of 4.4%. Moreover, the pIC50 on P-selectin is 5.52.

`CC[C@@H](C)[C@H]1NC(=O)[C@H](NC(=O)[C@@H](CCCCN)NC(=O)[C@H](N)CCCNC(=N)N)CSSC[C@H](C(=O)N[C@H](Cc2c[nH]c3ccccc23)C(=O)N[C@@H](C(=O)N[C@H](Cc2c[nH]c3ccccc23)C(=O)N[C@@H](C(N)=O)C(C)C)[C@H](C)O)NC(=O)[C@H]([C@@H](C)CC)NC1=O` [(92)] (H-[dR][dK][dC][dI]I[dC][dW][dT][dW][dV]-NH2; disulfide 3-6): the ring closure, yield of all isomers in data set [1] (from CC[C@@H](C)[C@@H](NC(=O)[C@@H](CS)NC(=O)[C@@H](CCCCN)NC(=O)[C@H](N)CCCNC(=N)N)C(=O)N[C@H](C(=O)N[C@H](CS)C(=O)N[C@H](Cc1c[nH]c2ccccc12)C(=O)N[C@@H](C(=O)N[C@H](Cc1c[nH]c2ccccc12)C(=O)N[C@@H](C(N)=O)C(C)C)[C@H](C)O)[C@@H](C)CC, DMSO, 0.0765 mM, 24.0 h) came to 17.5%. In addition, the negative logarithm of the IC50 (pIC50) on P-selectin is 5.62.

On to `CC(C)[C@@H](NC(=O)[C@@H](Cc1c[nH]c2ccccc12)NC(=O)[C@H](NC(=O)[C@@H](Cc1c[nH]c2ccccc12)NC(=O)[C@H]1CSSC[C@@H](NC(=O)[C@@H](CCCCN)NC(=O)[C@H](N)CCCNC(=N)N)C(=O)NCC(=O)N[C@@H](C)C(=O)N1)[C@H](C)O)C(N)=O` [(38)] (H-[dR][dK][dC]GA[dC][dW][dT][dW][dV]-NH2; disulfide 3-6), for which the ring closure, yield of all isomers in data set [1] (from CC(C)[C@@H](NC(=O)[C@@H](Cc1c[nH]c2ccccc12)NC(=O)[C@H](NC(=O)[C@@H](Cc1c[nH]c2ccccc12)NC(=O)[C@@H](CS)NC(=O)[C@H](C)NC(=O)CNC(=O)[C@@H](CS)NC(=O)[C@@H](CCCCN)NC(=O)[C@H](N)CCCNC(=N)N)[C@H](C)O)C(N)=O, air/Cu wire, NH4OH, 3.31 mM, 20.0 h) amounted to 15.1%. The compound also showed a pIC50 on P-selectin of 4.12.

`CC(C)[C@@H](NC(=O)[C@@H](Cc1c[nH]c2ccccc12)NC(=O)[C@H](NC(=O)[C@@H](Cc1c[nH]c2ccccc12)NC(=O)[C@H]1CSSC[C@@H](NC(=O)[C@@H](CCCCN)NC(=O)[C@H](N)CCCNC(=N)N)C(=O)NCC(=O)N[C@H](Cc2ccccc2)C(=O)N1)[C@H](C)O)C(N)=O` [(13)] (H-[dR][dK][dC]G[dF][dC][dW][dT][dW][dV]-NH2; disulfide 3-6): the ring closure, yield of all isomers in data set [1] (from CC(C)[C@@H](NC(=O)[C@@H](Cc1c[nH]c2ccccc12)NC(=O)[C@H](NC(=O)[C@@H](Cc1c[nH]c2ccccc12)NC(=O)[C@@H](CS)NC(=O)[C@@H](Cc1ccccc1)NC(=O)CNC(=O)[C@@H](CS)NC(=O)[C@@H](CCCCN)NC(=O)[C@H](N)CCCNC(=N)N)[C@H](C)O)C(N)=O, DMSO, 0.242 mM, 16.0 h) was 10.7%. In addition, the pIC50 on P-selectin is 4.30.

`CC(C)[C@@H](NC(=O)[C@@H](Cc1c[nH]c2ccccc12)NC(=O)[C@H](NC(=O)[C@@H](Cc1c[nH]c2ccccc12)NC(=O)[C@H]1CSSC[C@@H](NC(=O)[C@@H](CCCCN)NC(=O)[C@H](N)CCCNC(=N)N)C(=O)N[C@@H](CCCNC(=N)N)C(=O)N[C@@H](Cc2ccccc2)C(=O)N1)[C@H](C)O)C(N)=O` [(39)] (H-[dR][dK][dC]RF[dC][dW][dT][dW][dV]-NH2; disulfide 3-6) registered a ring closure, yield of all isomers in data set [1] (from CC(C)[C@@H](NC(=O)[C@@H](Cc1c[nH]c2ccccc12)NC(=O)[C@H](NC(=O)[C@@H](Cc1c[nH]c2ccccc12)NC(=O)[C@@H](CS)NC(=O)[C@H](Cc1ccccc1)NC(=O)[C@H](CCCNC(=N)N)NC(=O)[C@@H](CS)NC(=O)[C@@H](CCCCN)NC(=O)[C@H](N)CCCNC(=N)N)[C@H](C)O)C(N)=O, DMSO, 0.315 mM, 25.0 °C, 96.0 h) of 12.2%. The pIC50 at P-selectin is 4.51.

`CC(C)[C@@H](NC(=O)[C@@H](Cc1c[nH]c2ccccc12)NC(=O)[C@H](NC(=O)[C@@H](Cc1c[nH]c2ccccc12)NC(=O)[C@H]1CSSC[C@@H](NC(=O)[C@@H](CCCCN)NC(=O)[C@H](N)CCCNC(=N)N)C(=O)NCC(=O)N[C@H](CCCCN)C(=O)N1)[C@H](C)O)C(N)=O` [(55)] (H-[dR][dK][dC]G[dK][dC][dW][dT][dW][dV]-NH2; disulfide 3-6) yielded a ring closure, yield of all isomers in data set [1] (from CC(C)[C@@H](NC(=O)[C@@H](Cc1c[nH]c2ccccc12)NC(=O)[C@H](NC(=O)[C@@H](Cc1c[nH]c2ccccc12)NC(=O)[C@@H](CS)NC(=O)[C@@H](CCCCN)NC(=O)CNC(=O)[C@@H](CS)NC(=O)[C@@H](CCCCN)NC(=O)[C@H](N)CCCNC(=N)N)[C@H](C)O)C(N)=O, DMSO, 0.175 mM, 120.0 h) of 10.6%. Further, at P-selectin, the negative logarithm of the IC50 (pIC50) was 4.22.

`CC(C)[C@@H]1NC(=O)CNC(=O)[C@H](NC(=O)[C@@H](CCCCN)NC(=O)[C@H](N)CCCNC(=N)N)CSSC[C@H](C(=O)N[C@H](Cc2c[nH]c3ccccc23)C(=O)N[C@@H](C(=O)N[C@H](Cc2c[nH]c3ccccc23)C(=O)N[C@@H](C(N)=O)C(C)C)[C@H](C)O)NC1=O` [(89)] (H-[dR][dK][dC]GV[dC][dW][dT][dW][dV]-NH2; disulfide 3-6) came in with a ring closure, yield of all isomers in data set [1] (from CC(C)[C@H](NC(=O)CNC(=O)[C@@H](CS)NC(=O)[C@@H](CCCCN)NC(=O)[C@H](N)CCCNC(=N)N)C(=O)N[C@H](CS)C(=O)N[C@H](Cc1c[nH]c2ccccc12)C(=O)N[C@@H](C(=O)N[C@H](Cc1c[nH]c2ccccc12)C(=O)N[C@@H](C(N)=O)C(C)C)[C@H](C)O, DMSO, 0.387 mM, 25.0 °C, 72.0 h) of 4%. This compound gave a pIC50 at P-selectin of 4.65.

(Values after US5753617A, “Peptide inhibitors of cellular adhesion” (Centocor, Inc., priority 1995, dated 1998).)
